Reference: patent US10689306B2, “Fertilizer composition and methods of making and using same” (SABIC GLOBAL TECHNOLOGIES B.V., priority 2015, dated 2020)

What was measured:
[1] = Thermal stability of NBTPT at urea melt temperature by HPLC; type: physicochemical; settings: 133-135° C., over time
Experimental: The percentage of intact NBTPT in the sample is shown in each chromatogram.
Certain fertilizer additives can be unstable and decompose at elevated temperatures. In a conventional manufacturing process, a fertilizer additive is directly exposed to the temperature of a urea melt, which is typically 133-135° C., during the granulation process. […] Accordingly, at least a portion of NBTPT is lost by using conventional methods.
The fertilizers and methods disclosed herein protect the fertilizer additive from being directly exposed to the temperature of a urea melt during the manufacturing process. The fertilizer core particle of the fertilizer comprises a binder, which protects the fertilizer additive from being directly exposed to the urea melt and the temperature of the urea melt. As such, the fertilizer additive is protected from the elevated temperature and is less likely to decompose. […] Thus, the fertilizers and methods disclosed herein prevent loss of a fertilizer additive, such as, for example, without limitation, an inhibitor, for example NBTPT, during the manufacturing process.
The thermal stability of neat NBTPT and NBTPT contained within a core, as disclosed herein, can be determined by HPLC. […] (133-135° C. is the typical temperature range of a urea melt) and can continuously be analyzed by HPLC every 5 min, until data for 30 min was collected. […]

[2] = cited from earlier work
[3] = Nitrogen loss after 17 days of exposure to Upland Crowley Soil (IFDC)
Experimental: The nitrogen volatilization was measured in different soils for several samples and compared to products on the market, such as Agrotain®, ESN®, and SuperU®. The samples were tested in Greenville soil, Crowley soil, and Brownfield Soil.
Crowley soil consists of very deep, somewhat poorly drained, very slowly permeable soils that formed in clayey fluviomarine deposits of the Pleistocene age. The soil exist in nearly level to very gently sloping soils and occur on flat coastal plains terraces. The slope is dominantly less than 1 percent but ranges to up to 3 percent. The mean annual precipitation is about 1549 mm (61 in), and the mean annual air temperature is about 20 degrees c. (68 degrees F.), where the soil is found. The soil is fine, smectitic, and thermic Typic Albaqualfs.

[4] = hot climatic region; cited from earlier work

In the case of `CCCCNP(N)(N)=S` [NBTPT, N-(n-butyl) thiophosphoric triamide], the “thermal stability of neat NBTPT” value ([1]; neat, FIG. 13) is given as “decomposes”, the “thermal stability of NBTPT within a fertilizer core particle” value ([1]; within a core, FIG. 14) is given as “stable over time and does not decompose” and the “stability under acidic pH” value [2] is given as “unstable”.
For `NC(N)=O` [Urea, urea], the “Cumulative Nitrogen Loss (mg) by 17 Days” value ([3]; 17 days of exposure to Upland Crowley Soil) was 299.08 mg, the “% Urea” value ([3]; nitrogen loss relative to urea (100), 17 days, Upland Crowley Soil) was 100% and the “% Reduction in Nitrogen Loss” value ([3]; versus urea, 17 days, Upland Crowley Soil) was 0%.
In the case of `N#CN=C(N)N` [DCD, dicyandiamide], the “thermal stability in the soil” value [4] is listed as “thermal instability”.
